Assay results taken from ChEMBL document CHEMBL4261574 (Medchemcomm, 2018).

Legend:
[1] = Selectivity index, ratio of IC50 for ovine COX-1 to IC50 for recombinant human COX-2
[2] = molecular target: T1, Prostaglandin G/H synthase 1 (Ovis aries, UniProt P05979); experiment: Inhibition of ovine COX-1 assessed as reduction of prostaglandin-G2 to prostaglandin-H2 by measuring oxidation of 10-acetyl-3,7-dihydroxyphenoxazine to resorufin after 5 mins by fluorescence based assay
T1 sequence (P05979 whole entry): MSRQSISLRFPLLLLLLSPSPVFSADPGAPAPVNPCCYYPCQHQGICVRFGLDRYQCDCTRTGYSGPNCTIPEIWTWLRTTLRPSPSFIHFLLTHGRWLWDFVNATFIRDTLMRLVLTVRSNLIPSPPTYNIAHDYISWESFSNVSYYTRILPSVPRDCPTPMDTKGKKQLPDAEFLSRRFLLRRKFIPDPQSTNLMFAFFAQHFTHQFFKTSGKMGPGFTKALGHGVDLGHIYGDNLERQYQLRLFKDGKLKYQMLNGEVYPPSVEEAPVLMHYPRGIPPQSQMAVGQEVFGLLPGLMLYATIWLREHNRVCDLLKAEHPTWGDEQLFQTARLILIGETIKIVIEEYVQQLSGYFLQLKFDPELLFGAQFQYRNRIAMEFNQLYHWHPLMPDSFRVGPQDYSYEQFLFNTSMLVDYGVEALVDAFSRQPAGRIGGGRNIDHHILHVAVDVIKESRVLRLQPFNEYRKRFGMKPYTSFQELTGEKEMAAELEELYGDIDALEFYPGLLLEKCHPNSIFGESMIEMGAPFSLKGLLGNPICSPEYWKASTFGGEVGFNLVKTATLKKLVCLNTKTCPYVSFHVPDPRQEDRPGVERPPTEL

[3] = molecular target: T2, Prostaglandin G/H synthase 2 (Homo sapiens, UniProt P35354)
T2 sequence (P35354 whole entry): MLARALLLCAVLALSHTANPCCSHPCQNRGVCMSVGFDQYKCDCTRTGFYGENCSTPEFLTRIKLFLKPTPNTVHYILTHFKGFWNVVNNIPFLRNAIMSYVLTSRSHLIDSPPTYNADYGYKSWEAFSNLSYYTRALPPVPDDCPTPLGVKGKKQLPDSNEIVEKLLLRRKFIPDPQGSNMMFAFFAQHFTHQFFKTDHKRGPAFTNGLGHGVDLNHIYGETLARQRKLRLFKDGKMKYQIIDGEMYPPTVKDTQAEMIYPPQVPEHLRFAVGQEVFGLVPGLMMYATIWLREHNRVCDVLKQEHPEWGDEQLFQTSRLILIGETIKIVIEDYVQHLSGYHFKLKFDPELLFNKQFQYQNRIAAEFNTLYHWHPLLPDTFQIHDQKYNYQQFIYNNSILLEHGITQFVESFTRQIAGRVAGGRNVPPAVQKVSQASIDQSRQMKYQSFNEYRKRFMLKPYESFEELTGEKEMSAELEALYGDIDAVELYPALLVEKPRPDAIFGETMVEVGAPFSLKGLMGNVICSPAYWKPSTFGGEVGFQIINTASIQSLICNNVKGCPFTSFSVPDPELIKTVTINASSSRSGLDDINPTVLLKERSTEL

[4] = Solubility of compound in normal saline; format: physicochemical
[5] = Dissociation constant, pKa of compound; format: physicochemical

Row | Structure (SMILES) | Ratio IC50 [1] | IC50 [2] [µM] | IC50 [3] [µM] | solubility [4] | pKa [5]
1 | C[Si](C)(C)c1onc(-c2ccccc2)c1-c1ccc(S(C)(=O)=O)cc1 | 23.9 | > 100 | 4.17 |  | 
2 | NS(=O)(=O)c1ccc(-c2cc(-c3ccc(F)cc3)no2)cc1 | > 1.2 | > 100 | 81.2 |  | 
3 | CCC(=O)NS(=O)(=O)c1ccc(-c2c(-c3ccccc3)noc2C)cc1 [PARECOXIB] |  |  |  | > 50 mg/mL | 
4 | C[Si](C)(C)c1onc(-c2ccccc2)c1-c1ccc(S(N)(=O)=O)cc1 | > 770 | > 100 | 0.13 |  | 
5 | C[Si](C)(C)c1c(-c2ccccc2)noc1-c1ccc(S(C)(=O)=O)cc1 |  | > 100 | > 100 |  | 
6 | CS(=O)(=O)c1ccc(-c2cc(-c3ccc(F)cc3)no2)cc1 |  | > 100 | > 100 |  | 
7 | NS(=O)(=O)c1ccc(-c2conc2-c2ccccc2)cc1 | > 2100 | > 100 | 0.048 |  | 
8 | C[Si](C)(C)c1c(-c2ccccc2)noc1-c1ccc(S(N)(=O)=O)cc1 | > 9 | > 100 | 11.1 |  | 
9 | CS(=O)(=O)c1ccc(-c2conc2-c2ccccc2)cc1 | > 400 | > 100 | 0.247 |  | 
10 | C[Si](C)(C)c1c(-c2ccc(F)cc2)noc1-c1ccc(S(N)(=O)=O)cc1 | > 2.6 | > 100 | 38.2 |  | 
11 | NS(=O)(=O)c1ccc(-c2cc(-c3ccccc3)no2)cc1 | > 9.3 | > 100 | 10.8 |  | 
12 | NS(=O)(=O)c1ccc(-c2conc2-c2ccc(F)cc2)cc1 | > 2400 | > 100 | 0.042 |  | 
13 | CS(=O)(=O)c1ccc(-c2cc(-c3ccccc3)no2)cc1 | > 7.4 | > 100 | 13.5 |  | 
14 | Cc1onc(-c2ccccc2)c1-c1ccc(S(N)(=O)=O)cc1 [VALDECOXIB] |  |  |  | 10 mM | 9.8
15 | C[Si](C)(C)c1onc(-c2ccc(F)cc2)c1-c1ccc(S(N)(=O)=O)cc1 | > 110 | > 100 | 0.93 |  | 

Next, values leading:

Row | Ratio IC50 [1] | IC50 [2] [µM] | IC50 [3] [µM] | solubility [4] | pKa [5] | Structure (SMILES)
16 | > 12 | > 100 | 8.14 |  |  | CS(=O)(=O)c1ccc(-c2c(-c3ccc(F)cc3)noc2C(F)(F)F)cc1
17 | > 7 | > 100 | 13.8 |  |  | CS(=O)(=O)c1ccc(-c2c(-c3ccc(F)cc3)noc2C=O)cc1
18 |  | > 100 | > 100 |  |  | COC(=O)c1onc(-c2ccc(F)cc2)c1-c1ccc(S(C)(=O)=O)cc1
19 | > 54 | > 100 | 1.87 |  |  | C[Si](C)(C)c1onc(-c2ccc(F)cc2)c1-c1ccc(S(C)(=O)=O)cc1
20 |  | > 100 | > 100 |  |  | CC(=O)c1onc(-c2ccc(F)cc2)c1-c1ccc(S(C)(=O)=O)cc1
21 |  | > 100 | > 100 |  |  | CS(=O)(=O)c1ccc(-c2c(-c3ccc(F)cc3)noc2C(=O)c2ccccc2)cc1
22 | > 1400 | > 100 | 0.073 |  |  | Cc1onc(-c2ccc(F)cc2)c1-c1ccc(S(N)(=O)=O)cc1
23 | 28.7 | 10.1 | 0.351 |  |  | CS(=O)(=O)c1ccc(-c2c(-c3ccc(F)cc3)noc2Cl)cc1
24 | > 1800 | > 100 | 0.057 |  |  | CS(=O)(=O)c1ccc(-c2conc2-c2ccc(F)cc2)cc1
25 |  | > 100 | > 100 |  |  | C[Si](C)(C)c1c(-c2ccc(F)cc2)noc1-c1ccc(S(C)(=O)=O)cc1
